This is an account of results in US12612368B2 (Remedy Plan, Inc., priority 2019, dated 2026).

What is called IC50 is the concentration needed to halve the response being measured.

For assay [1], the system named is MV-4-11 cells. The assay is described as follows: Cell viability in MV-4-11 cells (CellTiter Glo2). Particulars: Homo sapiens, MV4-11, 96 h, 8-point dose response, 4 days, CellTiter Glo2 (Table E2), read-out: MV-4-11 Cell Viability, MV-4-11 IC50. The class given is cell-based. (In general: ATP-based viability assays read luminescence as a measure of living cells.)
Protocol: Approximately 10,000 MV-4-11 cells per well of a 96-well plate were treated with DMSO (no drug control) or each compound in Tables E1 and E2 in an 8-point dose response for 4 days, Cell viability was measured using CellTiter Glo2. The ICse of each compound was determined using CDD Vault.

Assay [2] concerns the target T1, NAMPT (Homo sapiens, UniProt P43490).
T1 construct: purchased Abcam ab221819
Put plainly: NAMPT Activity Assay (Abcam #ab221819). Particulars: purified NAMPT, two-step reaction, OD450 nm; percent inhibition vs no drug; compound concentration not stated. In kind it is biochemical.

A value given as a limit tells only on which side of the number the result lay.

T1 sequence (P43490 whole entry): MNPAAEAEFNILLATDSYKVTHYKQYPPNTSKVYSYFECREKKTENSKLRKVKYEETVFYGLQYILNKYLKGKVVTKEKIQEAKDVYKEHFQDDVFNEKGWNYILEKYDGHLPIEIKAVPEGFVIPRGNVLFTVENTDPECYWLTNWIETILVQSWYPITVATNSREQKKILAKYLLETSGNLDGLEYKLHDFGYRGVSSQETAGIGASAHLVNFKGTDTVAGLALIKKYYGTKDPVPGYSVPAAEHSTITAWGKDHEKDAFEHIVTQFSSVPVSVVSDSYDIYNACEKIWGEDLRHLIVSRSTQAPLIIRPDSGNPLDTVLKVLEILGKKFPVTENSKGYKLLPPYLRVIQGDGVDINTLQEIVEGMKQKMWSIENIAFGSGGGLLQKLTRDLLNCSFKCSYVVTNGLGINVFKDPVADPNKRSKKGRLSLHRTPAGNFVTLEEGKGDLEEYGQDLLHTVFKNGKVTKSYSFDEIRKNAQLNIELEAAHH

With `CC(=O)N(CC1CC1)c1ccc(-c2ccc(C(=O)NCc3ccc(C)nc3C)cn2)cc1C` [Compound I-489, 6-[4-[Acetyl(cyclopropylmethyl)amino]-3-methyl-phenyl]-N-[(2,6-dimethyl-3-pyridyl)methyl]pyridine-3-carboxamide], in assay [1], the IC50 was determined as 2220 nM. In addition, the “NAMPT Inhibition Code” value in assay [2] is reported as “A (A = <33% inhibition)”.
For the molecule `CCOC(=O)NCCC(=O)N(C)c1ccc(-c2ccc(C(=O)NCc3cccnc3C)cn2)cc1C` [Compound I-491, Ethyl N-[3-[N,2-dimethyl-4-[5-[(2-methyl-3-pyridyl)methylcarbamoyl]-2-pyridyl]anilino]-3-oxo-propyl]carbamate], in assay [1], the IC50 worked out at 1830 nM. Also, in assay [2], the “NAMPT Inhibition Code” value is “A (A = <33% inhibition)”.
As to `Cc1cc(-c2ccc(C(=O)NCc3cccnc3C)cn2)ccc1N(C)C(=O)CC#N` [Compound I-492, 6-[4-[(2-cyanoacetyl)-methyl-amino]-3-methyl-phenyl]-N-[(2-methyl-3-pyridyl)methyl]pyridine-3-carboxamide], the IC50 in assay [1] is 6770 nM. Further, the “NAMPT Inhibition Code” value in assay [2] is “A (A = <33% inhibition)”.
Take `CC(=O)N(c1ccc(-c2ccc(C(=O)NCc3cccnc3)cn2)cc1C)C(C)C` [Compound I-495, 6-[4-[Acetyl(isopropyl)amino]-3-methyl-phenyl]-N-(3-pyridylmethyl)pyridine-3-carboxamide]: the IC50 in assay [1] is 10.7 nM. Moreover, the “NAMPT Inhibition Code” value in assay [2] is recorded as “C (C = ≥66% inhibition)”.
Turning to `CCC(=O)N(C)c1ccc(-c2ccc(C(=O)N(C)Cc3cccnc3)cn2)cc1C` [Compound I-496, N-methyl-6-[3-methyl-4-[methyl(propanoyl)amino]phenyl]-N-(3-pyridylmethyl)pyridine-3-carboxamide], the IC50 in assay [1] is > 15800 nM. Also, the “NAMPT Inhibition Code” value in assay [2] is “A (A = <33% inhibition)”.
Taken in the same sequence, the figures for `CC(=O)CC(=O)N(c1ccc(-c2ccc(C(=O)NCc3cccnc3C)cn2)cc1C)C(C)C` [Compound I-497, 6-(4-(N-isopropyl-3-oxobutanamido)-3-methylphenyl)-N-((2-methylpyridin-3-yl)methyl)nicotinamide] were 5720 nM and “A (A = <33% inhibition)”.
Taken in the same sequence, the figures for `CC(=O)N(CCC(F)(F)F)c1ccc(-c2ccc(C(=O)NCc3cccnc3C)cn2)cc1` [Compound I-499, 6-[4-[Acetyl(3,3,3-trifluoropropyl)amino]phenyl]-N-[(2-methyl-3-pyridyl)methyl]pyridine-3-carboxamide] were 3990 nM and “A (A = <33% inhibition)”.
Turning to `CC(=O)N(CC1CC1)c1ccc(-c2ccc(C(=O)NCc3cccnc3C)cn2)cc1` [Compound I-500, 6-[4-[Acetyl(cyclopropylmethyl)amino]phenyl]-N-[(2-methyl-3-pyridyl)methyl]pyridine-3-carboxamide], in assay [1], the IC50 came out at 2280 nM. Besides, in assay [2], the “NAMPT Inhibition Code” value was “A (A = <33% inhibition)”.
Take `COC(=O)NCCC(=O)N(C)c1ccc(-c2ccc(C(=O)NCc3cccnc3C)cn2)cc1C` [Compound I-501, Methyl N-[3-[N,2-dimethyl-4-[5-[(2-methyl-3-pyridyl)methylcarbamoyl]-2-pyridyl]anilino]-3-oxo-propyl]carbamate]: in assay [1], the IC50 was 1830 nM. Also, the “NAMPT Inhibition Code” value in assay [2] is listed as “A (A = <33% inhibition)”.
Taken in the same sequence, the figures for `CCC(=O)N(CCN)c1ccc(-c2ccc(C(=O)NCc3cccnc3)cn2)cc1C` [Compound I-502, 6-[4-[2-aminoethyl(propanoyl)amino]-3-methyl-phenyl]-N-(3-pyridylmethyl)pyridine-3-carboxamide] were 224 nM and “A (A = <33% inhibition)”.
For `CC(=O)N(CC1COC1)c1ccc(-c2ccc(C(=O)NCc3cccnc3C)cn2)cc1C` [Compound I-510, 6-[4-[Acetyl(oxetan-3-ylmethyl)amino]-3-methyl-phenyl]-N-[(2-methyl-3-pyridyl)methyl]pyridine-3-carboxamide] the same measures were 5910 nM and “A (A = <33% inhibition)”.
For `CCC(=O)N(C)c1ccc(-c2ccc(C(=O)NCc3cccnc3C(F)(F)F)cn2)cc1C` [Compound I-511, 6-[3-Methyl-4-[methyl(propanoyl)amino]phenyl]-N-[[2-(trifluoromethyl)-3-pyridyl]methyl]pyridine-3-carboxamide] the same measures were 7070 nM and “A (A = <33% inhibition)”.
With `CC(=O)N(c1ccc(-c2ccc(C(=O)NCc3cccnc3C)cn2)cc1C)C(C)C` [Compound I-512, 6-[4-[Acetyl(isopropyl)amino]-3-methyl-phenyl]-N-[(2-methyl-3-pyridyl)methyl]pyridine-3-carboxamide], the IC50 in assay [1] came to 4380 nM. For the same molecule, the “NAMPT Inhibition Code” value in assay [2] is “A (A = <33% inhibition)”.
Taken in the same sequence, the figures for `CC(=O)N(CC1CC(F)(F)C1)c1ccc(-c2ccc(C(=O)NCc3cccnc3C)cn2)cc1` [Compound I-517, 6-[4-[Acetyl-[(3,3-difluorocyclobutyl)methyl]amino]phenyl]-N-[(2-methyl-3-pyridyl)methyl]pyridine-3-carboxamide] were 2440 nM and “A (A = <33% inhibition)”.
For `CCC(=O)N(C)c1ccc(-c2ccc(C(=O)NCc3ccc(NCCN)nc3)cn2)cc1C` [Compound I-527, N-((6-((2-aminoethyl)amino)pyridin-3-yl)methyl)-6-(3-methyl-4-(N-methylpropionamido)phenyl)nicotinamide], the IC50 in assay [1] turned out to be 787 nM. The “NAMPT Inhibition Code” value in assay [2] was “A (A = <33% inhibition)”.
For `Cc1cc(-c2ccc(C(=O)NCc3cccnc3)cn2)ccc1N(C)C(=O)CCN` [Compound I-593, 6-[4-[3-aminopropanoyl(methyl)amino]-3-methyl-phenyl]-N-(3-pyridylmethyl)pyridine-3-carboxamide] the same measures were 1470 nM and “A (A = <33% inhibition)”.
For `CC(=O)N(CC(C)C)c1ccc(-c2ccc(C(=O)NCc3cccnc3)cn2)cc1C` [Compound I-594, 6-[4-[Acetyl(isobutyl)amino]-3-methyl-phenyl]-N-(3-pyridylmethyl)pyridine-3-carboxamide] the same measures were < 6.64 nM and “C (C = ≥66% inhibition)”.
`Cc1cc(-c2ccc(C(=O)NCc3cccnc3)cn2)ccc1N(C(=O)C(F)F)C(C)C` [Compound I-595, 6-[4-[(2,2-Difluoroacetyl)-isopropyl-amino]-3-methyl-phenyl]-N-(3-pyridylmethyl)pyridine-3-carboxamide]: the IC50 in assay [1] was 4.53 nM. Moreover, the “NAMPT Inhibition Code” value in assay [2] is on record as “C (C = ≥66% inhibition)”.
With `CC(=O)N(c1ccc(-c2ccc(C(=O)NCc3cccnc3)cn2)cc1Cl)C(C)C` [Compound I-596, 6-[4-[Acetyl(isopropyl)amino]-3-chloro-phenyl]-N-(3-pyridylmethyl)pyridine-3-carboxamide], in assay [1], the IC50 worked out at 2.39 nM. Besides, the “NAMPT Inhibition Code” value in assay [2] is recorded as “C (C = ≥66% inhibition)”.
Regarding `CC(=O)N(c1ccc(-c2ccc(C(=O)NCc3cccnc3)cc2)cc1Cl)C(C)C` [Compound I-597, 4-[4-[Acetyl(isopropyl)amino]-3-chloro-phenyl]-N-(3-pyridylmethyl)benzamide], the IC50 in assay [1] came out at 21.6 nM. The “NAMPT Inhibition Code” value in assay [2] is on record as “C (C = ≥66% inhibition)”.
Taken in the same sequence, the figures for `CC(=O)N(CC(C)C)c1ccc(-c2ccc(C(=O)NCc3cccnc3)cn2)cc1Cl` [Compound I-599, 6-[4-[Acetyl(isobutyl)amino]-3-chloro-phenyl]-N-(3-pyridylmethyl)pyridine-3-carboxamide] were 3.28 nM and “C (C = ≥66% inhibition)”.
Taken in the same sequence, the figures for `CC(=O)N(CC1CC(F)(F)C1)c1ccc(-c2ccc(C(=O)NCc3cccnc3)cn2)cc1C` [Compound I-600, 6-[4-[Acetyl-[(3,3-difluorocyclobutyl)methyl]amino]-3-methyl-phenyl]-N-(3-pyridylmethyl)pyridine-3-carboxamide] were 20.6 nM and “B (B = ≥33 to <66% inhibition)”.
Consider `CC(=O)N(CCC(F)(F)F)c1ccc(-c2ccc(C(=O)NCc3cccnc3)cn2)cc1C` [Compound I-601, 6-[4-[Acetyl(3,3,3-trifluoropropyl)amino]-3-methyl-phenyl]-N-(3-pyridylmethyl)pyridine-3-carboxamide], for which the IC50 in assay [1] is 62.7 nM. Moreover, the “NAMPT Inhibition Code” value in assay [2] is listed as “B (B = ≥33 to <66% inhibition)”.
For `CC(=O)N(CC1CC1)c1ccc(-c2ccc(C(=O)NCc3cccnc3)cn2)cc1Cl` [Compound I-602, 6-[4-[Acetyl(cyclopropylmethyl)amino]-3-chloro-phenyl]-N-(3-pyridylmethyl)pyridine-3-carboxamide] the same measures were 5.56 nM and “C (C = ≥66% inhibition)”.
On to `CC(=O)N(CC1CC(F)(F)C1)c1ccc(-c2ccc(C(=O)NCc3cccnc3)cn2)cc1Cl` [Compound I-603, 6-[4-[Acetyl-[(3,3-difluorocyclobutyl)methyl]amino]-3-chloro-phenyl]-N-(3-pyridylmethyl)pyridine-3-carboxamide], for which, in assay [1], the IC50 is < 5.89 nM. Besides, the “NAMPT Inhibition Code” value in assay [2] is reported as “C (C = ≥66% inhibition)”.
For `CC(=O)N(CCC(F)(F)F)c1ccc(-c2ccc(C(=O)NCc3cccnc3)cn2)cc1Cl` [Compound I-604, 6-[4-[Acetyl(3,3,3-trifluoropropyl)amino]-3-chloro-phenyl]-N-(3-pyridylmethyl)pyridine-3-carboxamide] the same measures were 33 nM and “B (B = ≥33 to <66% inhibition)”.
As to `CCc1cc(-c2ccc(C(=O)NCc3cccnc3)cn2)ccc1N(C)C(C)=O` [Compound I-605, 6-[4-[Acetyl(methyl)amino]-3-ethyl-phenyl]-N-(3-pyridylmethyl)pyridine-3-carboxamide], in assay [1], the IC50 worked out at 351 nM. The “NAMPT Inhibition Code” value in assay [2] is “B (B = ≥33 to <66% inhibition)”.
